# Assay results taken from PubChem BioAssay (NCI).
#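 A five-concentration, 48-hour dose response in 96-well plates underlies each endpoint, interpolated linearly between surrounding concentrations. TGI: concentration producing complete growth inhibition.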
# How the values were obtained:
# Assay in all cases: NCI-60 cell line screen, 48 h
# HCT-116 colon = system: HCT-116 colon
# OVCAR-5 ovarian = system: OVCAR-5 ovarian
# UACC-62 melanoma = system: UACC-62 melanoma
# U251 CNS = system: U251 CNS
# SK-MEL-5 melanoma = system: SK-MEL-5 melanoma
# MOLT-4 leukemia = system: MOLT-4 leukemia
# NCI-H460 lung = system: NCI-H460 lung
# BT-549 breast = system: BT-549 breast
# NCI-H226 lung = system: NCI-H226 lung
# NCI-H522 lung = system: NCI-H522 lung
# OVCAR-4 ovarian = system: OVCAR-4 ovarian
# SNB-75 CNS = system: SNB-75 CNS
# 786-0 renal = system: 786-0 renal
# SK-MEL-28 melanoma = system: SK-MEL-28 melanoma
# UO-31 renal = system: UO-31 renal
# COLO 205 colon = system: COLO 205 colon
# MDA-MB-435 = system: MDA-MB-435
# SR leukemia = system: SR leukemia
SMILES,TGI (HCT-116 colon) [µM],TGI (OVCAR-5 ovarian) [µM],TGI (UACC-62 melanoma) [µM],TGI (U251 CNS) [µM],TGI (SK-MEL-5 melanoma) [µM],TGI (MOLT-4 leukemia) [µM],TGI (NCI-H460 lung) [µM],TGI (BT-549 breast) [µM],TGI (NCI-H226 lung) [µM],TGI (NCI-H522 lung) [µM],TGI (OVCAR-4 ovarian) [µM],TGI (SNB-75 CNS) [µM],TGI (786-0 renal) [µM],TGI (SK-MEL-28 melanoma) [µM],TGI (UO-31 renal) [µM],TGI (COLO 205 colon) [µM],TGI (MDA-MB-435) [µM],TGI (SR leukemia) [µM]
Cc1[nH]c2ncn3ncnc3c2c1Cc1ccccc1,> 100,> 100,> 100,> 100,> 100,> 100,> 100,> 100,> 100,> 100,> 100,> 100,> 100,> 100,> 100,> 100,> 100,–
CC(=O)OCc1cccc(O)c1C(=O)CCC=C(C)C,> 100,> 100,> 100,> 100,> 100,> 100,> 100,–,> 100,56.6,> 100,–,> 100,> 100,> 100,> 100,> 100,> 100
CN(C)C(=S)N/N=C\C(=N/NC(=S)N(C)C)c1ccccc1,> 46.5,> 100,> 100,> 100,> 100,> 100,> 100,> 100,> 30.6,9.86,> 100,> 53.7,> 100,> 100,> 100,> 100,> 100,–
Cc1ccc(S(=O)(=O)c2c(N)c3nccn3c3nc4ccccc4nc23)cc1,> 100,> 100,> 100,> 100,> 100,> 100,> 100,–,–,> 100,> 100,> 100,> 100,> 100,> 100,> 100,–,> 100
Cc1c(/C=N/NC(=O)c2ccccc2)c(=O)n(-c2ccccc2)n1C,> 100,–,> 100,> 100,–,> 100,> 100,–,> 100,> 100,> 100,> 100,> 100,> 100,> 100,> 100,–,> 100
COc1cc2c(c(N)c1OC)C(=O)/C(=C/c1cc(C)c(O)c(C)c1)C2,2.24,> 100,> 100,> 45.5,> 32.7,> 100,> 57.8,> 100,> 100,–,> 100,–,> 100,> 100,> 100,> 52.2,–,> 100
COc1nc(/C=N/NC(N)=S)nc(OC)n1,> 100,> 100,> 100,> 100,–,> 100,> 100,–,> 100,> 100,> 100,> 100,> 100,> 100,> 100,> 100,–,> 100
Cc1ccc(-c2c(C#N)c(-c3ccc([N+](=O)[O-])cc3)c(C#N)c(=O)n2NS(=O)(=O)c2ccc(C)cc2)cc1,> 100,> 100,> 100,> 100,48.7,50.1,> 100,> 100,> 100,> 100,> 100,> 100,> 100,> 100,–,> 100,> 100,–
Cc1ccccc1N=Cc1ccc(N(CCC#N)S(=O)(=O)c2ccccc2)cc1,> 100,> 100,> 100,> 100,> 100,> 100,> 100,–,> 100,> 100,> 100,> 100,> 100,> 100,> 100,> 100,–,> 100
C/C(O)=C(/C=N\C(=S)Nc1ccc(Cl)c(Cl)c1)C(=O)Nc1ccccc1C,> 100,> 100,49.8,> 100,44,54.9,> 100,> 100,88.7,–,76.5,66.3,> 100,> 100,> 100,> 100,> 100,–
CC(=O)Nc1ccc2c3c(cc(O)c2c1)N(C(=O)CCCC(=O)Nc1ccc2c4c(cc(O)c2c1)N(C(=O)OC(C)(C)C)CC4CCl)CC3CCl (stereo not drawn),> 50,> 15.4,2.31,4.38,> 11.6,0.912,21.5,3.75,–,3.85,6.4,12.6,> 13.1,> 13,> 50,6.05,2,–
CC1(C)CC(=O)C(CC(C(=O)C(=O)Nc2cc(C(F)(F)F)ccc2Cl)C(=O)c2ccco2)C(=O)C1 (stereo not drawn),> 100,> 100,> 100,> 100,> 100,> 100,> 100,> 100,> 100,> 100,> 100,–,> 100,> 100,> 100,> 100,> 100,–
Cc1cc(=O)oc2c(CNC(C)C(=O)O)c(O)ccc12 (stereo not drawn),> 100,> 100,> 100,> 100,> 100,> 100,> 100,–,> 100,> 100,> 100,> 100,> 100,> 100,> 100,> 100,> 100,> 100
CC(C)=CCC/C(C)=C/CC/C(C)=C/CC/C=C(\C)CC/C=C(\C)CCC1SC1(C)C (stereo not drawn),> 100,> 100,> 100,> 100,> 100,> 100,> 100,–,> 100,> 100,> 100,> 100,> 100,> 100,> 100,> 100,–,–
CSC(=NC1CC(n2cc(C)c(=O)[nH]c2=O)OC1CO)NC#N (stereo not drawn),> 100,> 100,> 100,> 100,> 100,> 100,> 100,–,> 100,> 100,> 100,> 100,> 100,> 100,> 100,> 100,> 100,–
COC(=O)c1ccccc1/C=C1\Cc2cc3c(cc2C1=O)CCC3,> 100,> 100,> 100,> 100,> 100,> 100,> 100,> 100,> 100,> 100,> 100,> 100,> 100,> 100,> 100,> 100,–,> 100
C=C1C(=O)OC2C[C@H](C)C3CC(=O)C(C)=C3CC12 (stereo partly drawn),20.4,28.9,25.9,18.1,33.3,23.3,51.6,–,30.6,3.66,30.3,32.6,26.1,18.7,26,26.5,–,22.3
CC(N)C(=O)c1ccc(O)cc1 (stereo not drawn),> 100,> 100,> 100,> 100,> 100,> 100,> 100,–,> 100,> 100,> 100,> 100,> 100,> 100,> 100,> 100,–,–
CC(=O)O[C@H]1C(=O)[C@@]2(C)[C@H]([C@H](OC(=O)c3ccccc3)[C@]3(O)C[C@H](OC(=O)[C@H](O)[C@@H](NC(=O)c4ccccc4)C4CCCCC4)C(C)=C1C3(C)C)[C@]1(OC(C)=O)CO[C@@H]1C[C@@H]2O,> 44.9,0.673,52.2,> 43,14.9,> 51.6,15.3,> 100,> 100,0.011,50.5,–,> 100,> 100,36.2,< 0.01,–,25.1
Nc1ncnc2c1ncn2[C@@H]1C[C@H]1CO,> 100,> 100,–,> 100,–,> 100,> 100,–,> 100,> 100,–,–,> 100,–,> 100,–,–,> 100
O=C1C=C(c2c(-c3ccccc3)[nH]c3ccccc23)C(=O)N1c1ccccc1,19.6,33.3,27.9,26.8,20.9,> 100,35.3,24.1,68.5,–,–,–,21.1,68.7,28.9,24.5,24.6,–
CNc1nnnn1C1OC(CO)C(O)C1O (stereo not drawn),> 100,> 100,> 100,> 100,> 100,> 100,> 100,–,> 100,> 100,–,> 100,> 100,–,> 100,> 100,–,–
CN(C)C1(C(=O)O)CC1,> 100,> 100,–,> 100,> 100,> 100,> 100,–,> 100,> 100,> 100,> 100,> 100,> 100,–,–,> 100,> 100
CCOC(=O)C1=C(OS(=O)(=O)C(F)(F)F)CCCC1,–,> 100,> 100,> 100,> 100,> 100,> 100,–,> 100,> 100,> 100,> 100,> 100,> 100,> 100,> 100,> 100,> 100
Cc1nc2c(=O)[nH]c3ccccc3c2o1,> 100,> 100,> 100,> 100,> 100,–,> 100,> 100,> 100,–,> 100,> 100,> 100,> 100,> 100,> 100,> 100,–
COc1c(C(=O)/C(=N/Nc2ccccc2)C(C)=O)c(O)c(OC)c2occc12,> 100,> 100,> 100,> 100,31.7,> 100,> 100,–,> 100,> 100,> 100,81.8,> 100,> 100,86.3,> 100,> 100,> 100
Cc1ccc(S(=O)(=O)NC(=O)C2(Br)S(=O)(=O)OCCOS2(=O)=O)cc1,> 100,> 100,> 100,> 100,> 100,> 100,> 100,–,> 100,> 100,> 100,> 100,> 100,> 100,> 100,> 100,–,> 100
CCN(CC)CCCC(C)NC(=O)c1cc(-c2nccn2C)nc2ccc(C)cc12 (stereo not drawn),> 100,> 100,> 100,> 100,> 100,–,> 100,> 100,> 100,–,> 100,> 100,> 100,> 100,> 100,> 100,> 100,–
OC(c1ccsc1)c1cc2ccccc2s1 (stereo not drawn),> 10,> 10,> 10,> 10,> 10,> 10,> 10,–,> 10,> 10,> 10,> 10,> 10,> 10,> 10,> 10,> 10,> 10
